Test results reported in patent US10066159B2, “Composite nanoparticles including a phthalic acid derivative” (3M INNOVATIVE PROPERTIES COMPANY, priority 2013, dated 2018).

Assay: Solubility in toluene
Format: physicochemical
Settings: based on a total weight of the solution

solubility in toluene | SMILES
greater than 1 weight percent | CCCCCCCCOc1cc(C(=O)O)c(C(=O)O)cc1OCCCCCCCC [Example 2, 4,5-dioctyloxyphthalic Acid]
greater than 1 weight percent | CCCCCCOc1ccc(C(=O)O)c(C(=O)O)c1 [Example 1, 4-hexyloxyphthalic Acid]
